Test results reported in ChEMBL document CHEMBL1201862, “PubChem BioAssay data set” (2004).
Active and inactive are the calls of the source.

What was measured:
[1] = biological target: 5-hydroxytryptamine receptor 2A (Mus musculus, UniProt P35363); type: functional, cell-based;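 note: CHO-K1 cells with tagged receptor and beta-arrestin; agonist potency measured as compound-induced activation of the receptor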
Mu-type opioid receptor = Mu-type opioid receptor (Homo sapiens, UniProt P35372); type: functional, cell-based;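 note: U2OS cells with beta-arrestin recruitment to OPRM1 by beta-gal complementation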
Mu-type opioid receptor, sequence (P35372 whole entry): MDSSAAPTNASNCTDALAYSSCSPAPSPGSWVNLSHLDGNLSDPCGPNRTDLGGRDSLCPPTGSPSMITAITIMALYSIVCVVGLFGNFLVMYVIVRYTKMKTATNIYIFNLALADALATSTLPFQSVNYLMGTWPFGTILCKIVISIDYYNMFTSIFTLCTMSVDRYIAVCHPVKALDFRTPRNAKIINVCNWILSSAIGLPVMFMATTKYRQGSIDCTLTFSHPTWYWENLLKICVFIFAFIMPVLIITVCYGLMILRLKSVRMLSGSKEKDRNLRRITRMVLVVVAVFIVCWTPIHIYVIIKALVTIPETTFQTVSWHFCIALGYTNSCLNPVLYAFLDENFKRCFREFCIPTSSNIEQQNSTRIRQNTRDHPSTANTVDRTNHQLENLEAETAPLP

cells [2] = type: functional, cell-based; details: HEK-CNG
Galanin receptor type 3 = Galanin receptor type 3 (Homo sapiens, UniProt O60755); test: Fluorescence-based cell-based primary high throughput dose response assay to identify antagonists of the Galanin Receptor 3 (GalR3).; type: functional
Galanin receptor type 3, sequence (O60755 whole entry): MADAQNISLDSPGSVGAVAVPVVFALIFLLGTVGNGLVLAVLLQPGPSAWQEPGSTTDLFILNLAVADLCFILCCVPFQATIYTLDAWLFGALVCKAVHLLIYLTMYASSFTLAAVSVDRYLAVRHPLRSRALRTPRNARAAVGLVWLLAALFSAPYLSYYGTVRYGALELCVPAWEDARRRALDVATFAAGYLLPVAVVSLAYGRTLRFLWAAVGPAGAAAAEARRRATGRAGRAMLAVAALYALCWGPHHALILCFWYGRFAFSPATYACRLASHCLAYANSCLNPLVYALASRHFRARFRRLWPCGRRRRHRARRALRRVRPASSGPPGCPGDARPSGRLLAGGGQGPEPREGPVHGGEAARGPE

[3] = biological target: T1, Tyrosine-protein phosphatase non-receptor type 5 (Homo sapiens, UniProt P54829); test: STEP phosphatase inhibitors, confirmation, biochemical, fluorescence intensity, uHTS hits (AID 602372); type: functional; details: read-out: IC50_Mean
T1 sequence (P54829 whole entry): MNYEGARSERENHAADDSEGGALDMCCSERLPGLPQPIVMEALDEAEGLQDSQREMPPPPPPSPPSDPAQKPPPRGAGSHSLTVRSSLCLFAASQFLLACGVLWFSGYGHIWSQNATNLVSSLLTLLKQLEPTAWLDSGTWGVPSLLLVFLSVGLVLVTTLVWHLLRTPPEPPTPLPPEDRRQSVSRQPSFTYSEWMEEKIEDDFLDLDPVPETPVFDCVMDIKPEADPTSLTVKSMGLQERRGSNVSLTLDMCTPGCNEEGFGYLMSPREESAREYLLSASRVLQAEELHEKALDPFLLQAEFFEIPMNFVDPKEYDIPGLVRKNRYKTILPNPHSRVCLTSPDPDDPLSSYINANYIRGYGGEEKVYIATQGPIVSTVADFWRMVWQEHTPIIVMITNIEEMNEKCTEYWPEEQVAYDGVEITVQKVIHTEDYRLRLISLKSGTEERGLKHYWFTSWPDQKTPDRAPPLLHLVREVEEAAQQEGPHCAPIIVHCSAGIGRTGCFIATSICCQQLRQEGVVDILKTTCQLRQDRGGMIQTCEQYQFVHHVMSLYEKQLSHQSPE

[4] = biological target: T2, Small ubiquitin-related modifier 1 (Homo sapiens, UniProt P63165); test: inhibitors of SUMO1 partner interactions, dose response, biochemical, FRET (AID 624383); type: functional; details: read-out: IC50_Mean
T2 sequence (P63165 whole entry): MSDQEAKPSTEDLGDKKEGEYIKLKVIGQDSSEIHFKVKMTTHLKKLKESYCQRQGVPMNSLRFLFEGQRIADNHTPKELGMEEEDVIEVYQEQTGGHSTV

[5] = biological target: T3, Tyrosine-protein phosphatase non-receptor type 22 (Homo sapiens, UniProt Q9Y2R2); test: PTPN22 phosphatase inhibition, dose response, selectivity assay for STEP inhibitor project, biochemical (AID 624241); type: functional
T3 sequence (Q9Y2R2 whole entry): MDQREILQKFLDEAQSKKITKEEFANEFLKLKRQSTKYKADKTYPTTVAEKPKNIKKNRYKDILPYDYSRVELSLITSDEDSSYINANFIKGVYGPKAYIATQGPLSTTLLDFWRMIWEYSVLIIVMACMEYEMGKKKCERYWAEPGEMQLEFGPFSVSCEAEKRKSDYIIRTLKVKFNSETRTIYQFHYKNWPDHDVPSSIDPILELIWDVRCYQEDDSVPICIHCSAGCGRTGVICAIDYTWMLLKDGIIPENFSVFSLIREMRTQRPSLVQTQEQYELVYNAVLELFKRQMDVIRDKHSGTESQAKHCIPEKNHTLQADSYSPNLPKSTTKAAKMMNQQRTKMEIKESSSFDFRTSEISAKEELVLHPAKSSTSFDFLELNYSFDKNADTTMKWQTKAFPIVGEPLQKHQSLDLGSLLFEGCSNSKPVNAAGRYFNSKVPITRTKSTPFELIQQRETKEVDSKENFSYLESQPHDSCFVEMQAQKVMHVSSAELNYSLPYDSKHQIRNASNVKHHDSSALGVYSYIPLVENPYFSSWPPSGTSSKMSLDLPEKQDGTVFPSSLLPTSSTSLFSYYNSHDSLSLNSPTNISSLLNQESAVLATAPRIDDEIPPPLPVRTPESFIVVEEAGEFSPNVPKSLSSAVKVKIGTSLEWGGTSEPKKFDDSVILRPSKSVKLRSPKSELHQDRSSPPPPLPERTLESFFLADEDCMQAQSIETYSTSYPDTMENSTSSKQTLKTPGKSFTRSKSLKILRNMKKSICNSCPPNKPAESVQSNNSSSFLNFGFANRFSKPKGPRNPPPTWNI

[6] = biological target: T4, Carboxy-terminal domain RNA polymerase II polypeptide A small phosphatase 1 (Homo sapiens, UniProt Q9GZU7); test: inhibitors of CTDSP1, concentration-response testing, biochemical assay, absorbance-based, actives from ultra-high-throughput screening (AID 540297); type: functional
T4 sequence (Q9GZU7 whole entry): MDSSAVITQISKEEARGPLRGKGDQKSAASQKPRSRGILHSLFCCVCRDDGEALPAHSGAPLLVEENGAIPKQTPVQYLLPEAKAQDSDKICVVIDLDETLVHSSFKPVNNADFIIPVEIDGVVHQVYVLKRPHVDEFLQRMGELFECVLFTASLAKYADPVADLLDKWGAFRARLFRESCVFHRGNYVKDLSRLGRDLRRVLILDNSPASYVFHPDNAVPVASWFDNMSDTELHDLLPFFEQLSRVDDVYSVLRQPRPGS

[7] = biological target: T5, Tyrosine-protein phosphatase non-receptor type 11 (Homo sapiens, UniProt Q06124); test: SHP2 phosphatase inhibition, dose response, selectivity assay for STEP inhibitor project, biochemical (AID 602367); type: functional; details: read-out: IC50_Mean
T5 sequence (Q06124 whole entry): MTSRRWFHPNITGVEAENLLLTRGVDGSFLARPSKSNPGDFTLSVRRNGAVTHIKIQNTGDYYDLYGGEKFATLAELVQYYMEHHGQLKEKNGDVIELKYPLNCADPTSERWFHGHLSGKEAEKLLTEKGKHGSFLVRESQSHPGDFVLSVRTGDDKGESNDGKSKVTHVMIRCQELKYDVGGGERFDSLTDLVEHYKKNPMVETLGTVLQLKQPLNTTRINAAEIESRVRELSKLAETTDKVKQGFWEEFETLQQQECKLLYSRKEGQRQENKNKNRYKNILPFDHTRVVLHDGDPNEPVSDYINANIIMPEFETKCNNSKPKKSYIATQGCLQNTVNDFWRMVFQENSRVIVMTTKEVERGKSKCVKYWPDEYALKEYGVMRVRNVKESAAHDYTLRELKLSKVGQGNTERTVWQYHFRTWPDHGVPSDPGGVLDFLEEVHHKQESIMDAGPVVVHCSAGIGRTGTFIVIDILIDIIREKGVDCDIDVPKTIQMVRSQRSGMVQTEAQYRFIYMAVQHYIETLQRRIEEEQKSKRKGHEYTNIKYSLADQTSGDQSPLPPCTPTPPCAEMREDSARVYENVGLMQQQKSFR

SUMO-activating enzyme [8] = biological target: T6, SUMO-activating enzyme (Homo sapiens, UniProt Q9UBT2); test: SUMOylation inhibitor hit validation, confirmation, SUMOylation inhibitor project, biochemical, AlphaScreen (AID 2018); type: functional
T6 sequence (Q9UBE0 whole entry): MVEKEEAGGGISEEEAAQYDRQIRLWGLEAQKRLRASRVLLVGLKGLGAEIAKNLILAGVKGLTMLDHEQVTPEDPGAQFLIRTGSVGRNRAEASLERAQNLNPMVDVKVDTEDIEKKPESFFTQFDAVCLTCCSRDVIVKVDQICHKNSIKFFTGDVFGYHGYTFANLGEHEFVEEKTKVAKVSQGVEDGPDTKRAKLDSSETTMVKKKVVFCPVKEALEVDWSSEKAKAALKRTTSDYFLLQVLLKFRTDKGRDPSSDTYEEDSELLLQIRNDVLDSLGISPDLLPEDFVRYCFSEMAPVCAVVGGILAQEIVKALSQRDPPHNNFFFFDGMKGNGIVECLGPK
T6 sequence (Q9UBT2 whole entry): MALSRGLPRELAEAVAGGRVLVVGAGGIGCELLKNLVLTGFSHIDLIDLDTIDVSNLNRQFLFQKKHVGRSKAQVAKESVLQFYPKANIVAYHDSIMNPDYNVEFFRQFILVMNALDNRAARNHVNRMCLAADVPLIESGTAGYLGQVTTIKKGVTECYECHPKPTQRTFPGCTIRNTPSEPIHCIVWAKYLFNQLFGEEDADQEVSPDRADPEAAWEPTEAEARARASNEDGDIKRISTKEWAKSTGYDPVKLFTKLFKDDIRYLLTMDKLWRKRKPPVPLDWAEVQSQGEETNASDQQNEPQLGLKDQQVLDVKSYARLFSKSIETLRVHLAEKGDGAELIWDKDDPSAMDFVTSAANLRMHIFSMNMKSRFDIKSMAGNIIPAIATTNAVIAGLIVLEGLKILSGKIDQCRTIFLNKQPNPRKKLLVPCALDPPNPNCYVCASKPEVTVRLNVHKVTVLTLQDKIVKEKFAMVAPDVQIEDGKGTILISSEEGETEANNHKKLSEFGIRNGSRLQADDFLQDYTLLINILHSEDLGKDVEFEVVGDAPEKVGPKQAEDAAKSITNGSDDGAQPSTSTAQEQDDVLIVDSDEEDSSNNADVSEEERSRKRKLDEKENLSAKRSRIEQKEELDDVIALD

[9] = biological target: T2, Small ubiquitin-related modifier 1; test: inhibitors of SUMO1 peptide binding, dose response, biochemical, fluorescence polarization, uHTS hits (AID 624382); type: functional; details: read-out: IC50_Mean
SUMO-activating enzyme [10] = biological target: T6, SUMO-activating enzyme; test: inhibitors of in vitro SUMOylation cascade, primary screen, biochemical, HTRF, uHTS (AID 2006); type: protein-complex assay
[11] = biological target: T7, Low molecular weight phosphotyrosine protein phosphatase (Homo sapiens, UniProt P24666); type: functional; details: read-out: IC50_Mean
T7 sequence (P24666 whole entry): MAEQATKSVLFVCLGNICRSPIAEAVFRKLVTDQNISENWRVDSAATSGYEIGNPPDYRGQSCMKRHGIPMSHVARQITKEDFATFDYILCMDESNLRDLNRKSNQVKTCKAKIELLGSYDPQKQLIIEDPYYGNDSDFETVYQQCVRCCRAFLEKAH

[12] = biological target: Dual specificity protein phosphatase 3 (Homo sapiens, UniProt P51452); test: VHR phosphatase inhibition, dose response, selectivity assay for STEP inhibitor project, biochemical (AID 602374); type: functional; details: read-out: IC50_Mean
Dual specificity protein phosphatase 3, sequence (P51452 whole entry): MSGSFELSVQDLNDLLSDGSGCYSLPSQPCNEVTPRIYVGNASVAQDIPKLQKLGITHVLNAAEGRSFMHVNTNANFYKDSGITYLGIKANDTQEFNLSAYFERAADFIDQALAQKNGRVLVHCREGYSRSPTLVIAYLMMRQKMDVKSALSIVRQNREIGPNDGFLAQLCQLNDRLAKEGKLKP

[13] = biological target: Nuclear receptor subfamily 0 group B member 1 (Homo sapiens, UniProt P51843); type: functional, cell-based;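 note: HEK293T cells transfected with SF-1 and DAX-1 plus StAR promoter luciferase reporter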
[14] = biological target: T7, Low molecular weight phosphotyrosine protein phosphatase; type: functional; details: read-out: IC50_Mean; remark: listed apart in the source
cells [15] = type: functional, cell-based
[16] = Luminescence Cell-Based Dose Retest to Confirm Inhibitors of Cancer Stem Cells. [Related pubchem assays (depositor defined):AID2717, AID2721]; type: functional; details: Homo sapiens
[17] = biological target: Heat shock protein HSP 90-alpha (Homo sapiens, UniProt P07900); type: functional, organism-based
[18] = ADAM10 protease inhibitors, dose response, selectivity assay for ADAM17 exosite inhibitor project, biochemical, FRET peptide substrate, recombinant human ADAM10 (AID 743259);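 note: ADAM10 enzyme cleaving a FRET peptide substrate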
[19] = biological target: Disintegrin and metalloproteinase domain-containing protein 17 (Homo sapiens, UniProt P78536); test: exosite inhibitors of ADAM17, dose response, biochemical (AID 743260)
Disintegrin and metalloproteinase domain-containing protein 17, sequence (P78536 whole entry, the tested form may be a part): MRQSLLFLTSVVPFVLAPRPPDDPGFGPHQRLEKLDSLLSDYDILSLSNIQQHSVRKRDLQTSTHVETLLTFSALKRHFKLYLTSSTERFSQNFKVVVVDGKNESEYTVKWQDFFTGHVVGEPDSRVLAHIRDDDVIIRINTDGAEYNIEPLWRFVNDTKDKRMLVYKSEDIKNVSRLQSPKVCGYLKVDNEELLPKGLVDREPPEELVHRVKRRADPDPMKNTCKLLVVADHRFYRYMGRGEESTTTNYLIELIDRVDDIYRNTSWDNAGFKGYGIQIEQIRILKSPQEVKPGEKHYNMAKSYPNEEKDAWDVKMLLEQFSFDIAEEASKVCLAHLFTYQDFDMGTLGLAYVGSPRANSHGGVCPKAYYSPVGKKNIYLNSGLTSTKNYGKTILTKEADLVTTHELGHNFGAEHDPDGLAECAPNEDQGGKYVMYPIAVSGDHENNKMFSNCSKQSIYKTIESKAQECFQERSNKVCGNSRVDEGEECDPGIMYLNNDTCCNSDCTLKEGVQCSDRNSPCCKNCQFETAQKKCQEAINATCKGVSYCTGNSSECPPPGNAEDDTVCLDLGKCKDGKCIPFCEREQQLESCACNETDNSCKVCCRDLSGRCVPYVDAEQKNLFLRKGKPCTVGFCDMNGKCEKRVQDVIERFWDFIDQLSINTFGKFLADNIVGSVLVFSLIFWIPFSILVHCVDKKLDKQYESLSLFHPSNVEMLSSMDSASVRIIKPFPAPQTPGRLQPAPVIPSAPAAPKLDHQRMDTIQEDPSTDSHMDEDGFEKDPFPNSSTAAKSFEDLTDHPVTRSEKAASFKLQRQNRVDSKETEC

[20] = biological target: Botulinum neurotoxin type F (Clostridium botulinum, UniProt P30996); test: High-throughput multiplex microsphere dose response for inhibitors of toxin protease, specifically Botulinum neurotoxin light chain F protease, compounds from Cherry Pick 02.; type: functional; details: read-out: EC50_MICROM
Botulinum neurotoxin type F, sequence (P30996 1-436 limits assumed): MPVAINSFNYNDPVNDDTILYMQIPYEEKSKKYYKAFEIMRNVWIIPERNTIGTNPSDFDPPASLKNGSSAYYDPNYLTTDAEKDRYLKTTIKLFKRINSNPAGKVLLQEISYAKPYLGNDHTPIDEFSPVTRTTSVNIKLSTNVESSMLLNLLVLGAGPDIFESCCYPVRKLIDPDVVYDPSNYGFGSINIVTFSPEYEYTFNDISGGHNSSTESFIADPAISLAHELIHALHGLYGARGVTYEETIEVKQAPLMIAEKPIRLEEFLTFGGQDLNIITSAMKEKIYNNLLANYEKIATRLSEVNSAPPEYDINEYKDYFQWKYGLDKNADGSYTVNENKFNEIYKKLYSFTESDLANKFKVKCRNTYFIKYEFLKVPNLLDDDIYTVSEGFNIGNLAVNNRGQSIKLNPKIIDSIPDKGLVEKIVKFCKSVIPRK

Lethal factor = Lethal factor (Bacillus anthracis, UniProt P15917); test: High-throughput multiplex microsphere dose response for inhibitors of toxin protease, specifically Lethal Factor protease, compounds from Cherry Pick 02.; type: functional; details: read-out: EC50_MICROM
Lethal factor, sequence (P15917 whole entry): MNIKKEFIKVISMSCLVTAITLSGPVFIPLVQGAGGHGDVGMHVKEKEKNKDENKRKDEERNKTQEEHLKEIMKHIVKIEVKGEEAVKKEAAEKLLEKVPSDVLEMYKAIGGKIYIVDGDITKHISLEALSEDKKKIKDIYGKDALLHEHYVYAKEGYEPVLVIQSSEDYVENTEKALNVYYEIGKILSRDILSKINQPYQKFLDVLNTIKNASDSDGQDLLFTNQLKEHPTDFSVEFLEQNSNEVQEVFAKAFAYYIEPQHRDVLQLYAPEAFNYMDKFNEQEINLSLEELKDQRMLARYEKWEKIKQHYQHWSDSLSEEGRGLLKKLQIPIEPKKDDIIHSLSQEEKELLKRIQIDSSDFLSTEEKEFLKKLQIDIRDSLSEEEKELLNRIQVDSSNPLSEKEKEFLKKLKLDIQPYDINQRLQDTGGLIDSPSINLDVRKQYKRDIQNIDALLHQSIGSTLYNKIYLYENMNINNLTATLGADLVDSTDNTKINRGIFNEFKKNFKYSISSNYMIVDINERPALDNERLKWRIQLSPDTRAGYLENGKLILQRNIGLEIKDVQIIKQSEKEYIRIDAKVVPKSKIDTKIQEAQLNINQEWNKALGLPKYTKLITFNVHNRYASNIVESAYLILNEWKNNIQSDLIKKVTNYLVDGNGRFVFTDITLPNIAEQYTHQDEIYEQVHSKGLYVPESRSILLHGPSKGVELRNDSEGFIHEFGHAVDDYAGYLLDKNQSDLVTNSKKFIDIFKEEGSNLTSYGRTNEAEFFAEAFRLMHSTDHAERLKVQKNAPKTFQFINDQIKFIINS

5-hydroxytryptamine receptor 2A, sequence (P35363 whole entry): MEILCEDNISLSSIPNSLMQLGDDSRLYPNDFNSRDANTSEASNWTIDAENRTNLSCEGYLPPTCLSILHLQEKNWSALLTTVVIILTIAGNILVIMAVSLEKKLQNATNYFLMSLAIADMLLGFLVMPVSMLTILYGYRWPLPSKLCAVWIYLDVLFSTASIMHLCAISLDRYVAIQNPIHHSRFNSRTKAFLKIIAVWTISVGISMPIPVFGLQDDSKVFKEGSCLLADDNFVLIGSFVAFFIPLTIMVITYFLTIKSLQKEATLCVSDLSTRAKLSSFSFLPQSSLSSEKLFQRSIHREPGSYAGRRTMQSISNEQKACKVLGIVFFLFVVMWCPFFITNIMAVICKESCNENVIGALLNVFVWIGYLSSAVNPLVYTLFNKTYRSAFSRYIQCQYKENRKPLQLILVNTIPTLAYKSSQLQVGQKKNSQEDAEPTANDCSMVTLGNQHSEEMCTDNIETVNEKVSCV

Compound: O=C(c1ccco1)N1CCN(Cc2ccc(Br)cc2)CC1
- EC50 [1]: 2.24 µM (active)
- EC50 (Mu-type opioid receptor): 92.4 µM (inactive)

Compound: COC(=O)CSc1nc(N)c(C#N)c(-c2ccc(O)cc2)c1C#N
- EC50 (cells [2]): > 29.9 µM (inactive)
- IC50 (Galanin receptor type 3): > 29.9 µM (inactive)

Compound: Cc1c(CC(=O)O)c(=O)oc2c(C)c(OCc3ccc(F)cc3Cl)ccc12
- IC50 [3]: 5.58 µM (active)
- IC50 [4]: 15.7 µM (active)
- IC50 [5]: 12.7 µM (active)
- IC50 [6]: 2.17 µM (active)
- IC50 [7]: 2.48 µM (active)
- IC50 (SUMO-activating enzyme [8]): > 100 µM (inactive)
- IC50 [9]: > 66.6 µM (inactive)
- IC50 (SUMO-activating enzyme [10]): 12.5 µM (active)
- IC50 [11]: 11.5 µM (active)
- IC50 [12]: 3.68 µM (active)

Compound: CC(Nc1nc(-c2ccccc2)nc2ccccc12)c1ccccc1 (centres undefined)
- IC50 [13]: > 67.5 µM (inactive)
- IC50 [14]: > 80 µM (inactive)
- IC50 (cells [15]): > 67.5 µM (inactive)
- AC50 [16]: 4.43 µM (active)
- IC50 [11]: 23.1 µM (inactive)

Compound: OCCCn1c(C2CCCN2c2nc(-c3ccc(F)cc3)cs2)nc2cc(Cl)c(Cl)cc21 (centres undefined)
- AC50 [17]: 5.05 µM (active)
- IC50 [18]: > 69.5 µM (inactive)
- IC50 [19]: > 69.5 µM (inactive)

Compound: CCCCCCCCC(c1nc2cc(C)c(C)cc2[nH]1)n1c(=O)c(-c2ccccc2Br)nc2ccccc21 (centres undefined)
- EC50 [20]: > 20 µM (inactive)
- EC50 (Lethal factor): 17.9 µM (active)
